pIC50: −log10 of the molar value.

One data set relates to H1975. Nature of the data set: H1975 CellTiter-Glo. The following applies: Homo sapiens, NCI-H1975; 72 h compound incubation; read-out: H1975 CTG IC50. It is filed as cell-based. Summed up:
(§1)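 Antiproliferative IC50 values come from a 72 h treatment of cultured cells, measured by CellTiter-Glo ATP luminescence. Only runs with a Z′-factor of at least 0.5, calculated from 16 vehicle and 16 Staurosporine (10 μM) control wells, are reported.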

For data set [1], the target named is Her2 Exon 20 INSYVMA Ba/F3 (Homo sapiens, UniProt P04626, DUP772-775, cells depend on it). Nature of the data set: Her2 Exon 20 INSYVMA Ba/F3 CellTiter-Glo. It is filed as cell-based. The following applies: CellTiter-Glo, 72 h, read-out: Her2 Exon 20 INSYVMA Ba/F3 CTG IC50. Summed up: (§2)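 IC50 values, binned A (≤100 nM) through E (>10000 nM), come from luminescent ATP quantitation of viable mutant-driven Ba/F3 cells. Compound exposure lasted 72 h, starting 24 h post-seeding; DMSO and 10 μM staurosporine served as controls, Z′ ≥0.5 required.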

For a further data set, the target named is T1, HER2 INS YVMA (Homo sapiens, UniProt P04626, INS775YVMA).
T1 construct: purchased DPF
Nature of the data set: Lance Kinase Activity Assay, HER2 INS YVMA (Her2 Exon 20 INSYVMA Lance). It counts as biochemical. The following applies: biochemical Lance assay. The gist of the method:
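Kinase phosphorylates a ULight-labelled peptide substrate; Eu anti-phospho antibody gives TR-FRET (ex 340 nm, em 665/615 nm). Compounds in 1:3 serial dilution over 8 steps, reaction started with ATP, 1 h at room temperature, stopped with EDTA-containing detection mix for 1 h. IC50 from sigmoidal dose-response curves.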

The next data set has as its system A431. Nature of the data set: A431 CellTiter-Glo. It is filed as cell-based. The following applies: Homo sapiens, A-431; 72 h compound incubation; read-out: A431 CTG IC50. The gist of the method: as §1
Data set [2] concerns the target EGFR Exon 20 INSNPH Ba/F3 (Homo sapiens, UniProt P00533, DUP771-773, cells depend on it). Nature of the data set: EGFR Exon 20 INSNPH Ba/F3 CellTiter-Glo. The following applies: CellTiter-Glo, 72 h, read-out: EGFR Exon 20 INSNPH Ba/F3 CTG IC50. It counts as cell-based. Summed up:
as §2

Data set [3] in a line: Metabolic stability in mouse liver microsomes without cofactor NADPH. It counts as in vitro ADME. The following applies: 3 μM test compound, mouse liver microsomes, without NADPH, 50 min, 37° C., LC-MS/MS. Summed up:
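Test compound (3 μM) was incubated with mouse liver microsomes without NADPH at 37° C. Depletion was followed by LC-MS/MS over time up to 50 min.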

For another data set, the target named is EGFR wt (Homo sapiens, UniProt P00533). Nature of the data set: EGFR wt Lance assay. It is filed as biochemical. How it is done:
(§3) Inhibition is indicated as […] [nM] (“−”=not measured). Compounds having an activity designated as “A” provided an IC50≤100 nM; compounds having an activity designated as “B” provided an 100 nM<IC50≤500 nM; compounds having an activity designated as “C” provided an 500 nM<IC50≤1000 nM; compounds having an activity designated as “D” provided an 1000 nM<IC50≤100000 nM; and compounds having an activity designated as “E” provided an IC50>10000 nM.

Another data set deals with H1781. Nature of the data set: H1781 CellTiter-Glo. It is filed as cell-based. The following applies: NCI-H1781; 72 h compound incubation; read-out: H1781 CTG IC50. The gist of the method:
as §1

For another data set, the target named is EGFR T790ML858R (Homo sapiens, UniProt P00533, L858R/T790M). Nature of the data set: EGFR T790ML858R Lance assay. It counts as biochemical. How it is done:
as §3

Her2 Exon 20 INSYVMA Ba/F3, sequence (P04626 with tags, fused parts or gaps DUP772-775): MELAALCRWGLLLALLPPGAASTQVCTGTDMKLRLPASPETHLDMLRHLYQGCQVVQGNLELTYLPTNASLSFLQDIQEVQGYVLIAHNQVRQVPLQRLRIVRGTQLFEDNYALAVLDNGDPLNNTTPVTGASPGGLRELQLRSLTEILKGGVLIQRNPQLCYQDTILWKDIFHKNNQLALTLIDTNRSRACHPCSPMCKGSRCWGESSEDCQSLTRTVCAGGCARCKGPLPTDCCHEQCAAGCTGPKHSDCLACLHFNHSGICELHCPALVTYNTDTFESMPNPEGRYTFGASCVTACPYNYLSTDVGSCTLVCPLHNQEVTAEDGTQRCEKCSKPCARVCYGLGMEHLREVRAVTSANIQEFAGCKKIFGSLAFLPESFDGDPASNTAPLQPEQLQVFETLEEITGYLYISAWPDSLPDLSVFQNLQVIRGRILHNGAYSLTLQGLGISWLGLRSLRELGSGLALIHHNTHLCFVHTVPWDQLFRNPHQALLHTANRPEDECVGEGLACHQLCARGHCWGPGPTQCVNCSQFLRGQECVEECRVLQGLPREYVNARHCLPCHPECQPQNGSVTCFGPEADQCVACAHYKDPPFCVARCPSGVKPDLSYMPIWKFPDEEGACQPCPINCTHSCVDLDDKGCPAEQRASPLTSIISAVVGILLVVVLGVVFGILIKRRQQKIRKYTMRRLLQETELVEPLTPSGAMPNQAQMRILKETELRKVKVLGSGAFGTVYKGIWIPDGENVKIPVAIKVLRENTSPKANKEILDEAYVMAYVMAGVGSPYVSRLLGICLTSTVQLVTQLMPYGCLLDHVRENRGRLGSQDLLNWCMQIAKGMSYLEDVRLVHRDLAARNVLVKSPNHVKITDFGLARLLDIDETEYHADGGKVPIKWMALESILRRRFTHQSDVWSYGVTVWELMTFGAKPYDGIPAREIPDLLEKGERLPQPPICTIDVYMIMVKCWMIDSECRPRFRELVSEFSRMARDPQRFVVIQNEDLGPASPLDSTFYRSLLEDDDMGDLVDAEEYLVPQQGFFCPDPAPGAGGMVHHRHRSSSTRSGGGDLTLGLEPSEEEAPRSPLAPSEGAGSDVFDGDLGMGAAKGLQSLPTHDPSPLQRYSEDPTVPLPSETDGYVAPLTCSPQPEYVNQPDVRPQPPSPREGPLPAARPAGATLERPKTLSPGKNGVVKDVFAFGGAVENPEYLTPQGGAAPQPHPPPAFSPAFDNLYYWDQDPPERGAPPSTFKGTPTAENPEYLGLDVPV
EGFR T790ML858R, sequence (P00533 25-1210 T790M/L858R): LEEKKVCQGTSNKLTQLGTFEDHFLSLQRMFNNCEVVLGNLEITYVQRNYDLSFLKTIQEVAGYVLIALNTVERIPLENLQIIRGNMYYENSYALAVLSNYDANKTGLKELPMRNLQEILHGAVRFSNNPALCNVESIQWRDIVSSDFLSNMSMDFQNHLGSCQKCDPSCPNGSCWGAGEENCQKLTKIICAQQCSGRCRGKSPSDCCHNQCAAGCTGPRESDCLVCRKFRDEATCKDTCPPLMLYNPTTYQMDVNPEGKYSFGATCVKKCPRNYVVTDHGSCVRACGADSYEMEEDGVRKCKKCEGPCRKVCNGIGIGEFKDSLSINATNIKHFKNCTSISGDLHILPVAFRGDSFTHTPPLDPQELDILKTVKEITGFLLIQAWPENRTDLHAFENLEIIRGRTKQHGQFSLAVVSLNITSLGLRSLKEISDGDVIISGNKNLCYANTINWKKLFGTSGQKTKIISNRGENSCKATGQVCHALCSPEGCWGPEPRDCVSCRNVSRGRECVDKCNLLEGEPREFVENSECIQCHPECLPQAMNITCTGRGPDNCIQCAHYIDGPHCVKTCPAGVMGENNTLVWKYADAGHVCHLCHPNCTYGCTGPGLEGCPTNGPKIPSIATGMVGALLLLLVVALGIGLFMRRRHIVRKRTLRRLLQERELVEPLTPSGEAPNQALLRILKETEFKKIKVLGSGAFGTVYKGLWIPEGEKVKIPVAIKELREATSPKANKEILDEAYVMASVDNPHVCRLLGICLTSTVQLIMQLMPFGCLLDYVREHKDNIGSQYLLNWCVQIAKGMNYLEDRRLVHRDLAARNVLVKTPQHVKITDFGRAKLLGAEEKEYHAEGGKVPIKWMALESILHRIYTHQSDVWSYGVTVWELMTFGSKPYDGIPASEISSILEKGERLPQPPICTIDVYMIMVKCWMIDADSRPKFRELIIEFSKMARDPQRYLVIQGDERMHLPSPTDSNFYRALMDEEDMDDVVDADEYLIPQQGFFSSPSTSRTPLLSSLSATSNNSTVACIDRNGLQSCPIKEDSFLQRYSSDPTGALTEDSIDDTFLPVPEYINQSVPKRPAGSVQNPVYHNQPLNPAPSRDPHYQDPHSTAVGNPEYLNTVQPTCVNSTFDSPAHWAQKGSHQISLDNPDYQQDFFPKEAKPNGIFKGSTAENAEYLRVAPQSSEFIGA
EGFR wt, sequence (P00533 25-1210): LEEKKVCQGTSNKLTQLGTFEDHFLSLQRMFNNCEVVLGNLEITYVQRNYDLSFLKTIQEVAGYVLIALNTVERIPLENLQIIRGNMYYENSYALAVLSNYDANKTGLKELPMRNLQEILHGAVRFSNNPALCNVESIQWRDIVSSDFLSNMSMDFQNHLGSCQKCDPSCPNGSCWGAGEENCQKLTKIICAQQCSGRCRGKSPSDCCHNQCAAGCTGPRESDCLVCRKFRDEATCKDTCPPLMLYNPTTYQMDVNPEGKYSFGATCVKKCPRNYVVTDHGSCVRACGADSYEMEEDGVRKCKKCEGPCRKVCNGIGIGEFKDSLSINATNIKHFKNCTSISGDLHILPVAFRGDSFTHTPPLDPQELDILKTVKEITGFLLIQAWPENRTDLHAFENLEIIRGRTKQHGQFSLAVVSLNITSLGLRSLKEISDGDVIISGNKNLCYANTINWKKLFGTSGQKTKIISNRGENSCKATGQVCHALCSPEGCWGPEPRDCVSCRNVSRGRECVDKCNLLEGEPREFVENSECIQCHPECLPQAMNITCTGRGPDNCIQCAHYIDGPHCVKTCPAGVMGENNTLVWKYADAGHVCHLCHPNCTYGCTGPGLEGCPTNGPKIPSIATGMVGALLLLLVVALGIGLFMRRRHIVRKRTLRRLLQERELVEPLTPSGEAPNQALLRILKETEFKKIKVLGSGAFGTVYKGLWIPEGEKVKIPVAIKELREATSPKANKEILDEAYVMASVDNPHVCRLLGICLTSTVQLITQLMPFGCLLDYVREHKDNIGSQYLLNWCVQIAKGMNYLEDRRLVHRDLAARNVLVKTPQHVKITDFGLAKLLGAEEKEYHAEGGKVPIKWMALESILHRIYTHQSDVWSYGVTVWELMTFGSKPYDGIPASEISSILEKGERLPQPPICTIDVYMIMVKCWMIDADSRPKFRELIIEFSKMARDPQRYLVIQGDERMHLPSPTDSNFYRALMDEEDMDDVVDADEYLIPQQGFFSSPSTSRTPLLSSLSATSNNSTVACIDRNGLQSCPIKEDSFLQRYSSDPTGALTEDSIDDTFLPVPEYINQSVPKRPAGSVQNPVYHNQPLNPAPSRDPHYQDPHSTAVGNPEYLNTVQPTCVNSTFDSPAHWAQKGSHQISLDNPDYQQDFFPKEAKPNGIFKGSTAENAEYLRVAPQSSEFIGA
EGFR Exon 20 INSNPH Ba/F3, sequence (P00533 with tags, fused parts or gaps DUP771-773): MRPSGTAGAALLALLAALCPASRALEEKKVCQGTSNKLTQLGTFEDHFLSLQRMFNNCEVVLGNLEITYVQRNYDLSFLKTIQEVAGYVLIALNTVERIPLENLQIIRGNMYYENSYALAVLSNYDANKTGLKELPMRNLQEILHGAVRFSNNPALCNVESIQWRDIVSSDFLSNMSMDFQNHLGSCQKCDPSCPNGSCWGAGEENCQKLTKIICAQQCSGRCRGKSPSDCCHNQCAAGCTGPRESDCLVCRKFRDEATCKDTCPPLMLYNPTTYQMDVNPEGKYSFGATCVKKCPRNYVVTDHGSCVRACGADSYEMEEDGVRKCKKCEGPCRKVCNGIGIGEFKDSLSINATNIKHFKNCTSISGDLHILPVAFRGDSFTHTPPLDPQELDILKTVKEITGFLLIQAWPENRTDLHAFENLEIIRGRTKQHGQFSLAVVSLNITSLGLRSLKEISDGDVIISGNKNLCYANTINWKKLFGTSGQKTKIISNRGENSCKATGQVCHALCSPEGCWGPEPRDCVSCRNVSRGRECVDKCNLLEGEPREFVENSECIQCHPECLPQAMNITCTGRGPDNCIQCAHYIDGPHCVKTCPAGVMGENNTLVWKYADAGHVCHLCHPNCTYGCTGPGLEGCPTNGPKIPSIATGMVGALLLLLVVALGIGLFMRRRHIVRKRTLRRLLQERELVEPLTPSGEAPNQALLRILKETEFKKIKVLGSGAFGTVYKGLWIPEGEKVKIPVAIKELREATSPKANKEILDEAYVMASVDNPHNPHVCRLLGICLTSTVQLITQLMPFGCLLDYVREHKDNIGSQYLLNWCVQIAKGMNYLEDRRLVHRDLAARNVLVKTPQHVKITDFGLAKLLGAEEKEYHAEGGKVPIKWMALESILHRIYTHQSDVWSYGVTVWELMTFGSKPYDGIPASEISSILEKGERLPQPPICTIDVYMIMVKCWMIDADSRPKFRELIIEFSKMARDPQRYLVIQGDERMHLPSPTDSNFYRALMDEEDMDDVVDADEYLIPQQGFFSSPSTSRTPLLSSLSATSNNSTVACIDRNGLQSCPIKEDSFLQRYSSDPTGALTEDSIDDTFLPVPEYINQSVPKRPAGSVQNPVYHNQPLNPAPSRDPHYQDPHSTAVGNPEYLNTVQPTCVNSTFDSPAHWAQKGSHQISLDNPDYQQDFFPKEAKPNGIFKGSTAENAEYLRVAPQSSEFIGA

With `C=CC(=O)N1CCc2ccc(-c3c(-c4ccc(C5CCN(C)CC5)cc4)[nH]c4nccc(Cl)c34)cc21` [Example 55, 1-(6-(4-Chloro-2-(4-(1-methylpiperidin-4-yl)phenyl)-1H-pyrrolo[2,3-b]pyridin-3-yl)indolin-1-yl)prop-2-en-1-one 2,2,2-trifluoroacetate], the pIC50 is at least 7.00 in the data set on H1975; at least 7.00 against HER2 INS YVMA; 4.00 to 6.00 in the data set on A431; at least 7.00 on EGFR wt; 4.00 to 6.00 in the data set on H1781; at least 7.00 against EGFR T790ML858R. Also, the GI50 in [1] and in data set [2] was 500 to 1000 nM throughout. Besides, the “Stability in presence of mouse liver microsomes without cofactor NADPH [% remaining after 50 min]” value in [3] is above 99 % remaining after 50 min.

For the compound `C=CC(=O)N1CCc2ccc(-c3c(-c4ccc(N5CCN(C)CC5)cc4)[nH]c4nccc(Cl)c34)cc21` [Example 56, 1-(6-(4-chloro-2-(4-(4-methylpiperazin-1-yl)phenyl)-1H-pyrrolo[2,3-b]pyridin-3-yl)indolin-1-yl)prop-2-en-1-one], the pIC50 with H1975 is at least 7.00; against HER2 INS YVMA, at least 7.00; in the data set with A431 it was 6.00 to 6.30; against EGFR wt it was at least 7.00; with H1781, 6.00 to 6.30; on EGFR T790ML858R, at least 7.00. In addition, the GI50 in [1] and in data set [2] was 100 to 500 nM each time. Moreover, the “Stability in presence of mouse liver microsomes without cofactor NADPH [% remaining after 50 min]” value in [3] was above 99 % remaining after 50 min.

Regarding `C=CC(=O)N1CCc2ccc(-c3c(-c4ccc(N5CCN(C)CC5)c(F)c4)[nH]c4nccc(Cl)c34)cc21` [Example 57, 1-(6-(4-chloro-2-(3-fluoro-4-(4-methylpiperazin-1-yl)phenyl)-1H-pyrrolo[2,3-b]pyridin-3-yl)indolin-1-yl)prop-2-en-1-one], the pIC50 was 6.30 to 7.00 with H1975; at least 7.00 against HER2 INS YVMA; 4.00 to 6.00 in the data set with A431; at least 7.00 against EGFR wt; 4.00 to 6.00 in the data set on H1781; at least 7.00 against EGFR T790ML858R. The GI50 was in the range of 100 to 500 nM in [1] and 500 to 1000 nM in [2]. Besides, in data set [3], the “Stability in presence of mouse liver microsomes without cofactor NADPH [% remaining after 50 min]” value is on record as above 99 % remaining after 50 min.

For the compound `C=CC(=O)N1CCc2ccc(-c3c(-c4ccc(N5CCN(C(C)=O)CC5)cc4)[nH]c4nccc(Cl)c34)cc21` [Example 58, 1-(6-(2-(4-(4-acetylpiperazin-1-yl)phenyl)-4-chloro-1H-pyrrolo[2,3-b]pyridin-3-yl)indolin-1-yl)prop-2-en-1-one], the pIC50 with H1975 is 6.30 to 7.00; at HER2 INS YVMA it was at least 7.00; in the data set on A431 it was 4.00 to 6.00; against EGFR wt it was at least 7.00; in the data set on H1781 it was 4.00 to 6.00; at EGFR T790ML858R, at least 7.00. The GI50 in [1] and in [2] was 1000 to 10000 nM in each case. Also, in [3], the “Stability in presence of mouse liver microsomes without cofactor NADPH [% remaining after 50 min]” value is above 99 % remaining after 50 min.

Turning to `C=CC(=O)N1CCc2ccc(-c3c(-c4ccnc(N5CCN(C)CC5)c4)[nH]c4nccc(Cl)c34)cc21` [Example 59, 1-(6-(4-chloro-2-(2-(4-methylpiperazin-1-yl)pyridin-4-yl)-1H-pyrrolo[2,3-b]pyridin-3-yl)indolin-1-yl)prop-2-en-1-one], the pIC50 in the data set with H1975 is at least 7.00; against HER2 INS YVMA, at least 7.00; in the data set with A431, 6.30 to 7.00; on EGFR wt, at least 7.00; with H1781, 6.30 to 7.00; against EGFR T790ML858R, at least 7.00. For the same compound, the GI50 in [1] and in data set [2] was 100 to 500 nM each time. Also, in [3], the “Stability in presence of mouse liver microsomes without cofactor NADPH [% remaining after 50 min]” value is above 99 % remaining after 50 min.

The values above are taken from patent publication US20220370440A1 (Lead Discovery Center GmbH, priority 2018, published 2022).
